Experimental data: US20230023009A1, “HETEROCYCLIC COMPOUNDS AND METHODS OF USE THEREOF” (SPARCBIO LLC, priority 2020, published 2023)
pIC50: −log10 of the molar value. Where two headings read alike, the source gives them in different places.

Key:
NCI-H358 cells = assay: 3D cell proliferation assay (Cell Titer-Glo 3D, 7 days); assay type: cell-based; settings: NCI-H358 3D, ultra-low attachment plate
Protocol: NCI-H358 cells (ATCC® CRL-5807™) were plated in a 384-well Black/Clear Round Bottom Ultra-Low Attachment Microplate (Corning) in medium (RPMI-1640+10% FBS) at a density of 1000 cells in 50 μL per well, then incubated overnight at 37° C. and 5% CO2. Cells were treated with test compounds at 9 concentrations within a specified concentration range (e.g., 0.5 nM-10 μM) for generation of dose response curves. Test compounds were prepared by 1:3 serial dilution in DMSO from a specified starting concentration (e.g., 20 μM, 2 μM or 0.2 μM) and then added to wells of the assay plate in a total volume of 150 nL DMSO. The cells were further incubated at 37° C. and 5% CO2 for 7 days. Cell viability was assessed by adding 40 μL of Cell Titer-Glo® 3D reagent (Cat. No.: G9683, Promega) to each well and reading luminescence after mixing and incubation of the samples. The IC50 value of each test compound was calculated with XLFit curve fitting software.

[1] = tested on: Phosphorylation of ERK in NCI-H358 cells; assay: pERK assay (Method II, homogeneous TR-FRET); assay type: cell-based; settings: Homo sapiens, 4 hrs compound treatment
Protocol: Method II. Phosphorylation of ERK was assessed by a homogeneous TR-FRET assay (Advanced phospho-ERK (Thr202/Tyr204) cellular kit; Cat. #64AERPEH, Cisbio). In brief, NCI-H358 cells were seeded in a 384-well culture plate at a density of 6000 cells in 40 μL medium/well and grown overnight at 37° C. and 5% CO2. Each test compound was dosed in duplicate in a 10-dose 3-fold titration starting at 10 μM or 2 μM. The culture plate was then incubated for 4 hrs in the incubator. At the end of the compound treatment, the medium was removed, 35 μL of lysis buffer was added to each well, and the plate was agitated on a plate shaker for 40 mins at 4° C. An antibody cocktail of phospho-ERK1/2 Eu Cryptate antibody and Phospho-ERK1/2 d2 antibody was prepared by separately diluting the antibodies 20-fold with detection buffer and then mixing them together. 3.4 μL of antibody cocktail was dispensed to each well of an empty 384-well white ProxiPlus assay plate (Perkin Elmer), and the plate briefly centrifuged. 13.6 μL of cell lysate was then added to the antibody-containing wells, and the plate was briefly centrifuged and then incubated 2 hrs at room temperature. The plate was read on a fluorescence plate reader (Envision2104, Perkin Elmer), with an excitation wavelength of 337 nm and emission wavelengths of 615 nm and 665 nm. The IC50 value of each test compound was calculated with XLFit curve fitting software. Results are shown in Table 6. ‘+++’ indicates IC50 values≤300 nM, ‘++’ indicates IC50 values between 300 nM-3 μM, and ‘+’ indicates IC50 values≥3 μM.

KRAS G12C protein = KRAS G12C protein (Homo sapiens, UniProt P01116, G12C); assay: Nucleotide exchange assay (Method III, KRAS G12C/Raf-RBD TR-FRET); assay type: biochemical; settings: SOS1-mediated exchange of GDP for GTP, 18 hr compound incubation
Protocol: Method III. Inhibition of SOS1-mediated exchange of GDP for GTP on the KRAS G12C protein was measured in a biochemical assay that monitors association of KRAS G12C protein with the Ras-binding domain of Raf (Raf-RBD), where the association is coupled to exchange of GDP to GTP on the KRAS G12C protein. The assay was performed at WuXi AppTec (Shanghai, China). Compounds were serially diluted in 3-fold dilutions to 11 concentrations and spotted into the wells of an assay plate in a total volume of 150 nL DMSO per well. A 2× enzyme mix was prepared by diluting GDP-bound, His-tagged KRAS G12C to 25 nM in assay buffer. 10 μL/well of 2× enzyme mix was added to all wells, and the plate was sealed and incubated overnight (18 hr) at 23° C. 4×SOS1/GDP and 4×SOS1/GTP were prepared in assay buffer. 5 μL/well of 4×SOS1/GDP mix was added to negative control wells, 5 μL/well of 4×SOS1/GTP mix was added to the remaining wells, and the plate was further incubated at 23° C. for 1 hr. Finally, FLAG-tagged Raf-RBD is added to the reaction mixture along with a pair of FRET donor- and acceptor-conjugated antibodies specific for the FLAG-tagged Raf-RBD and His-tagged KRAS G12C proteins. A 4×Raf-RBD/Tb-anti-FLAG/D2-anti-His mix was prepared in assay buffer, and 5 μL/well of the mix was added to all wells, followed by incubation at room temperature for 2 hr. The TR-FRET signals, which increase with association of KRAS G12C and Raf-RBD, were measured on a Perkin Elmer Envision 2104 plate reader, and data were analyzed by non-linear regression to obtain IC50 values for inhibition by compounds. Table 2 includes results of the assay of Method III. ‘+++’ indicates IC50 values≤300 nM, ‘++’ indicates IC50 values between 300 nM-3 μM, and ‘+’ indicates IC50 values≥3 μM.

MIA PaCa-2 = assay: Cell proliferation assay panel (Cell Titer-Glo, 72 hr); assay type: cell-based
Protocol: Potency of compounds was determined in cell proliferation assays in a panel of cancer cell lines. Cells were seeded in 384-well plates (Corning, Cat. #3765) at specified densities in 40 μL of culture medium and incubated overnight at 37° C. in a 5% CO2 incubator (culture conditions). With a robotic dispenser, serially diluted test compounds were added in a volume of 20 nL DMSO to wells in the culture plate to achieve the final desired concentrations of test compounds, and the cells were further incubated in culture conditions for 72 hr. The assay was terminated by addition of 25 μL of Cell Titer-Glo reagent (Promega, Madison, Wis.) to each well. Contents were mixed, the plate was incubated for 10 min at room temperature and luminescence was measured. The IC50 value of each test compound was calculated with XLFit curve fitting software. Results are shown in Table 4. ‘+++’ indicates IC50 values≤300 nM, ‘++’ indicates IC50 values between 300 nM-3 μM, and ‘+’ indicates IC50 values≥3 μM.

[2] = tested on: NCI-H358 subcutaneous xenograft tumors; assay: NCI-H358 mouse xenograft model
Protocol: NCI-H358 cells were injected subcutaneously (5×10^6 cells in 0.1 mL of PBS) into the right flanks of 6-8-week-old female BALB/c nude mice and allowed to grow until the average tumor size reached 150-200 mm^3. The mice were then stratified into treatment groups of 4-8 animals and treatment initiated on Day 0. Test compound or vehicle (1% Tween 80, 2% HPMC, and 97% water) was administered orally, once daily, for 21 days. Tumor size was measured twice weekly in two dimensions using a caliper, and the volume was expressed in mm^3 using the formula: V=(a×b^2/2) where a and b are the long and short diameters of the tumor, respectively. Tumor Growth Inhibition (TGI) was calculated for each group using the formula: TGI %=(1−Ti/Vi)×100, where Ti is the mean tumor volume of the treatment group on the measurement day, and Vi is the mean tumor volume of the control group on the measurement day. Animal body weight was monitored regularly as an indicator of toxicity. […] Data points represent the group mean, and error bars represent the standard error of the mean (SEM).

Sequence of KRAS G12C protein (P01116 1-188 isoform P01116-2 G12C): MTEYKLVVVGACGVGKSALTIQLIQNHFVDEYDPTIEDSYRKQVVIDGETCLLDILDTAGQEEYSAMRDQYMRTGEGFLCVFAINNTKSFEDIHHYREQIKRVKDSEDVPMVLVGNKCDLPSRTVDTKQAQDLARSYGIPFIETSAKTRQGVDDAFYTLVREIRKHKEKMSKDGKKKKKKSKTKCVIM

SMILES | pIC50 (NCI-H358 cells; Homo sapiens, NCI-H358, 168 h) | pIC50 (KRAS G12C protein) | pIC50 (MIA PaCa-2; Homo sapiens, MIA PaCa-2, 72 h) | also measured
CC#CC(=O)N1CCN(c2nc(OC[C@@H]3CCCN3C)nc3c2COC(c2cccc4cccc(Cl)c24)C3)C[C@@H]1CC#N (single isomer, unassigned) [243 (Isomer B)] | ≥ 7.00 | ≥ 6.52 | ≥ 6.52 | pIC50 [1]: ≥ 6.52
C=CC(=O)N1CCN(c2nc(OC[C@@H]3CCCN3C)nc3c2COC(c2cccc4cccc(Cl)c24)C3)CC1 (single isomer, unassigned) [40 (Isomer B)] | – | ≤ 5.52 | – | pIC50 (NCI-H358 cells): ≤ 5.70
C=C(F)C(=O)N1CCN(c2nc(OCC34CCCN3CCC4)nc3c2COC(c2cccc4cccc(Cl)c24)C3)C[C@@H]1CC#N (single isomer, unassigned) [266 (Isomer A)] | – | 5.52 to 6.52 | 5.52 to 6.52 | –
C/C=C/C(=O)N1CCN(c2nc(OC[C@@H]3CCCN3C)nc3c2COC(c2cccc4cccc(Cl)c24)C3)C[C@@H]1CC#N (single isomer, unassigned) [241 (Isomer A)] | ≥ 7.00 | ≥ 6.52 | 5.52 to 6.52 | pIC50 [1]: ≥ 6.52
C=C(F)C(=O)N1CCN(c2nc(OC[C@@H]3CCCN3C)nc3c2COC(c2cccc4sc(N)nc24)C3)C[C@@H]1CC#N (single isomer, unassigned) [260 (Isomer A)] | 5.70 to 7.00 | ≥ 6.52 | 5.52 to 6.52 | –
C=C(F)C(=O)N1CCN(c2nc(OC[C@@H]3CCCN3C)nc3c2CC=C(c2cccc4cccc(Cl)c24)O3)C[C@@H]1CC#N [Compound 178, 2-((S)-4-(7-(8-chloronaphthalen-1-yl)-2-(((S)-1-methylpyrrolidin-2-yl)methoxy)-5H-pyrano[2,3-d]pyrimidin-4-yl)-1-(2-fluoroacryloyl)piperazin-2-yl)acetonitrile] | 5.70 to 7.00 | ≥ 6.52 | – | –
C=C(F)C(=O)N1CCN(c2nc(OC[C@H]3CCCN3C)nc3c2COC(c2cccc4cccc(Cl)c24)C3)C[C@@H]1CC#N (single isomer, unassigned) [267 (Isomer B)] | – | ≥ 6.52 | – | pIC50 (MIA PaCa-2): ≥ 6.52
C=C(F)C(=O)N1CCN(c2nc(OC[C@@H]3CC(F)(F)CN3C)nc3c2COC(c2cccc4cccc(Cl)c24)C3)C[C@@H]1CC#N (single isomer, unassigned) [228 (Isomer A)] | – | ≥ 6.52 | 5.52 to 6.52 | pIC50 (NCI-H358 cells): ≥ 7.00
C=C(F)C(=O)N1CCN(c2nc(OC[C@@H]3CC(F)(F)CN3C)nc3c2COC(c2cccc4cccc(Cl)c24)C3)C[C@@H]1CC#N (single isomer, unassigned) [228 (Isomer B)] | – | ≤ 5.52 | – | pIC50 (NCI-H358 cells): ≤ 5.70
C=C(F)C(=O)N1CCN(c2nc(OCC34CCCN3CCC4)nc3c2COC(c2cccc4cccc(Cl)c24)C3)C[C@@H]1CC#N (single isomer, unassigned) [266 (Isomer B)] | ≥ 7.00 | ≥ 6.52 | – | pIC50 (MIA PaCa-2): ≥ 6.52
C=CC(=O)N1CCN(c2nc(OC[C@@H]3CCCN3C)nc3c2COC(c2cccc4cccc(Cl)c24)C3)CC1 (single isomer, unassigned) [40 (Isomer A)] | – | ≥ 6.52 | – | pIC50 (NCI-H358 cells): 5.70 to 7.00
C=C(F)C(=O)N1CCN(c2nc(OC[C@@H]3CCCN3C)nc3c2COC(c2nc(N)cc4ccccc24)C3)C[C@@H]1CC#N (single isomer, unassigned) [259 (Isomer A)] | – | 5.52 to 6.52 | – | pIC50 (MIA PaCa-2): ≤ 5.52
C=C(F)C(=O)N1CCN(c2nc(OC[C@H]3CCCN3C)nc3c2COC(c2cccc4cccc(Cl)c24)C3)C[C@@H]1CC#N (single isomer, unassigned) [267 (Isomer A)] | – | 5.52 to 6.52 | – | pIC50 (MIA PaCa-2): ≤ 5.52
C=C(F)C(=O)N1CCN(c2nc(OC[C@@H]3CCCN3C)nc3c2COC(c2c(C)ccc4[nH]ncc24)C3)C[C@@H]1CC#N (single isomer, unassigned) [52 (Isomer B)] | 5.70 to 7.00 | ≥ 6.52 | 5.52 to 6.52 | pIC50 [1]: 5.52 to 6.52
C=C(F)C(=O)N1CCN(c2nc(OC[C@@H]3CCCN3C)nc3c2COC(c2nc(N)cc4ccccc24)C3)C[C@@H]1CC#N (single isomer, unassigned) [259 (Isomer B)] | – | ≥ 6.52 | – | pIC50 (MIA PaCa-2): ≥ 6.52
C=C(F)C(=O)N1CCN(c2nc(OC[C@@H]3CCCN3C)nc3c2CO[C@H](c2cccc4cccc(Cl)c24)C3)C[C@@H]1CC#N (single isomer, unassigned) [43 (Isomer A)] | ≤ 5.70 | ≤ 5.52 | – | –
C=C(Cl)C(=O)N1CCN(c2nc(OC[C@@H]3CCCN3C)nc3c2COC(c2cccc4cccc(Cl)c24)C3)C[C@@H]1CC#N (single isomer, unassigned) [239 (Isomer B)] | ≥ 7.00 | ≥ 6.52 | ≥ 6.52 | –
C=CC(=O)N1CCN(c2nc(OC[C@@H]3CCCN3C)nc3c2COC(c2cccc4cccc(Cl)c24)C3)C[C@@H]1CC#N (single isomer, unassigned) [38 (Isomer B)] | ≥ 7.00 | ≥ 6.52 | – | TGI ([2]; 10 mg/kg orally once daily, Day 20 after treatment start): 22.4%; TGI ([2]; 30 mg/kg orally once daily, Day 20 after treatment start (day not restated for comparators)): 26.7%; TGI ([2]; 100 mg/kg orally once daily, Day 20 after treatment start): 50.4%
C=C(F)C(=O)N1CCN(c2nc(OC[C@@H]3CCCN3C)nc3c2COC(c2cccc4cccc(Cl)c24)C3(C)C)C[C@@H]1CC#N (single isomer, unassigned) [258 (Isomer B)] | ≥ 7.00 | ≥ 6.52 | ≥ 6.52 | –
C=CC(=O)N1CCN(c2nc(OC[C@@H]3CCCN3C)nc3c2CC=C(c2cccc4cccc(Cl)c24)O3)C[C@@H]1CC#N [Compound 181, 2-((S)-1-acryloyl-4-(7-(8-chloronaphthalen-1-yl)-2-(((S)-1-methylpyrrolidin-2-yl)methoxy)-5H-pyrano[2,3-d]pyrimidin-4-yl)piperazin-2-yl)acetonitrile] | ≥ 7.00 | ≥ 6.52 | – | –
